Here are results for 8 compounds from patent publication US7105543B2, “4-, 5-, 6- and 7-indole derivatives useful for the treatment of CNS disorders” (H. Lundbeck A/S, priority 2000, dated 2006).

Read-outs that look alike come from different tables or passages of the source. Bounds are passed on as bounds.

The target in assay [1] is T1, human cloned dopamine D4.2 receptors expressed in CHO-cells (Homo sapiens, UniProt P21917, DEL265-296).
T1 construct: expressed in transfected cells; host or cells: CHO cells
T1 sequence (P21917 with tags, fused parts or gaps DEL265-296): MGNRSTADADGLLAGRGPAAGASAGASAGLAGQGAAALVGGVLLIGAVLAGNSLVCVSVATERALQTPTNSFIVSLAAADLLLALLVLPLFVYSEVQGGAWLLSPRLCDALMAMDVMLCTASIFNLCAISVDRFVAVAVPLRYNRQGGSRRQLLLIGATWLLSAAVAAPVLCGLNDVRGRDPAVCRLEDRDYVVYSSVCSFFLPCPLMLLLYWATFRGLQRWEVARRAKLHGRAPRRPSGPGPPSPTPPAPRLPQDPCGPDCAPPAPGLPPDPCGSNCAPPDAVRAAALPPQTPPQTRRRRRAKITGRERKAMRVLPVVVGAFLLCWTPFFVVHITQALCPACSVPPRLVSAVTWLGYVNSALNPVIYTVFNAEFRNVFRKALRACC
Briefly: Inhibition of binding of [3H]YM-09151-2 to D4.2 receptors. The protocol:
Inhibition of Binding of [^3H]YM-09151-2 to D4.2 Receptors
By this method, the inhibition by drugs of the binding of [^3H]YM-09151-2 (0.06 nM) to membranes of human cloned dopamine D4.2 receptors expressed in CHO-cells is determined in vitro. The method is modified from NEN Life Science Products, Inc., technical data certificate PC2533-10/96.

In assay [2] the target is T2, dopamine D2 receptor (Rattus norvegicus, UniProt P61169).
T2 construct: from tissue
T2 sequence (P61169 whole entry): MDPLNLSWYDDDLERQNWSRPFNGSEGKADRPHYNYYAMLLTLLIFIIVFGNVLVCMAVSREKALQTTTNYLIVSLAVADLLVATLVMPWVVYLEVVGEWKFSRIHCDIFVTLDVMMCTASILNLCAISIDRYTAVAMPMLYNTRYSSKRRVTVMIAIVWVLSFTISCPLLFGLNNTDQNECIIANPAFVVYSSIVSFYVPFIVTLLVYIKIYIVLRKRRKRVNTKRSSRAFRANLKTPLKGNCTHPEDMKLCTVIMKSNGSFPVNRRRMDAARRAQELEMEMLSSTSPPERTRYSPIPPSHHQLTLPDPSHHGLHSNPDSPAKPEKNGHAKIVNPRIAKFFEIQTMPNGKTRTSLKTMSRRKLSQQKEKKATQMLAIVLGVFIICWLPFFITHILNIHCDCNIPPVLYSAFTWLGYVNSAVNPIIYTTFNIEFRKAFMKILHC
Briefly: Inhibition of the binding of [3H]Spiperone to D2 receptors. The protocol: Inhibition of the Binding of [^3H]Spiperone to D2 Receptors
The compounds were tested with respect to affinity for the dopamine D2 receptor by determining their ability to inhibit the binding of [^3H]Spiperone to D2 receptors by the method of Hyttel et al. J. Neurochem. 1985, 44, 1615.

Assay [3] deals with T3, D4 receptor (Homo sapiens, UniProt P21917).
T3 sequence (P21917 1-419): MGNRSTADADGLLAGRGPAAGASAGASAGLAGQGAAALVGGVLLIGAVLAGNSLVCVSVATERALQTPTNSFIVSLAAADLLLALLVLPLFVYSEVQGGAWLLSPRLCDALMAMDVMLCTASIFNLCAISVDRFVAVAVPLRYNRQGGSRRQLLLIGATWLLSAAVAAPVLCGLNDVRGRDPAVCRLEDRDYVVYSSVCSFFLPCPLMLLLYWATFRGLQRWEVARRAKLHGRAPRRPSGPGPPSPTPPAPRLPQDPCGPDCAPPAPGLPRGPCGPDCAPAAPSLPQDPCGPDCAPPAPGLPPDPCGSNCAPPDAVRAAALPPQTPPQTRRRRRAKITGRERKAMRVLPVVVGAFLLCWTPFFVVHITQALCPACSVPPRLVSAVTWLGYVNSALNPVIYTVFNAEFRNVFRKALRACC
To be noted: various in vitro efficacy assays, literature; cited from earlier work.

The mark [4] stands for this setting: inhibition of [3H]Spiperone binding, read-out: D2-Receptor IC50.

Regarding `COc1ccc(N2CCN(Cc3ccc4[nH]ccc4c3)CC2)cc1` [Compound 1c, 5-[[4-(4-methoxyphenyl)piperazin-1-yl]methyl]-1H-indole], the IC50 (in general, the concentration that inhibits the measured activity by half) was 25 nM in assay [1] and more than 10000 nM in assay [2].

For `Clc1ccc(C2=CCN(Cc3ccc4[nH]ccc4c3)CC2)cc1` [Compound 1e, 5-[4-(4-Chlorophenyl)-3,6-dihydro-2H-pyridin-1-ylmethyl]-1H-indole], the half-inhibitory concentration (IC50) was 1.4 nM in assay [1] and 190 nM in assay [2] (setting [4]).

In the case of `COc1ccc(N2CCN(Cc3ccc4cc[nH]c4c3)CC2)cc1` [Compound 1g, 6-[[4-(4-methoxyphenyl)piperazin-1-yl]methyl]-1H-indole], the half-inhibitory concentration (IC50) in assay [1] was 9.1 nM; in assay [2] it was more than 10000 nM.

Compound `Clc1ccc(N2CCN(Cc3ccc4cc[nH]c4c3)CC2)cc1` [Compound 1f, 6-[[4-(4-chlorophenyl)piperazin-1-yl]methyl]-1H-indole] registered an IC50 in assay [2] of more than 10000 nM.

As for `CC(C)Oc1cccnc1N(C)C1CCN(Cc2ccccc2)CC1` [Compound U-101958], the “Functional activity at the D4 receptor (in words)” value in assay [3] is “partial D4 receptor agonists”.

Regarding `Clc1ccc(N2CCN(Cc3ccc4[nH]ccc4c3)CC2)cc1` [Compound 1a, 5-[[4-(4-chlorophenyl)piperazin-1-yl]methyl]-1H-indole], the IC50 was 7.5 nM in assay [1] and 1700 nM in assay [2].

As to `c1ccc(N2CCN(Cc3ccc4[nH]ccc4c3)CC2)cc1` [Compound 1d, 5-[[4-phenylpiperazin-1-yl]methyl]-1H-indole], the figures for the IC50 in assay [1] and in assay [2] (setting [4]) were 31 nM and 940 nM, respectively.

With `c1cc2cc(CN3CCN(c4ccc5[nH]ccc5c4)CC3)ccc2[nH]1` [Compound 1b, 5-[[4-(5-indolyl)piperazin-1-yl]methyl]-1H-indole], the 50% inhibitory concentration (IC50) in assay [1] is less than 50 nM; in assay [2] (setting [4]), 1000 nM. Also, in assay [1] (printed as '<50/89', meaning of the second figure not explained), the D4-receptor, second figure after the slash in the IC50 cell was 89 nM.
